Measurements reported in USRE42748E1, “Oral DTPA for radionuclide chelation” (priority 2006, dated 2011).
Values joined by “and” are separate entries in the source; they are usually repeats but may differ in a detail not shown here. Identical values can stand only once.

Assays:
[1] = Oral bioavailability of two additional Ca-DTPA formulations in beagle dogs (SRI Study B221B-06)
Method: Oral bioavailability is assessed using the Beagle dog, or equivalent model, wherein levels of plasma Ca/Zn-DTPA from an orally administered composition are compared to levels obtained after i.v. administration using the calculation: BA=AUCPO×Doseiv/AUCiv×DosePO; where BA=bioavailability and AUC=area under the plasma concentration-time curve.
Two additional oral formulations of Ca-DTPA were studied in male and female beagle dogs to determine the effect of modifications in the formulation on oral bioavailability (SRI Study B221B-06). The dose administered was 10 mg/kg plus ˜100 μCi/kg. One male and one female dog received the drug in a bead formulation that consisted of 42.22% DTPA, 25.33% Labrasol®, 8.44% CAB-O-SIL EH5, 24.0% HPMC K110M, and 17.17% water; the other male and female dog were administered DTPA in a liquid formulation that consisted of 20% Labrasol®. In both dose groups, the formulated drug was added to size “0” capsules, then sealed and stored until administration.

[2] = Bioavailability study after liquid dose of radiolabeled DTPA (14C) in male Sprague-Dawley rats (SRI Study B230-06); format: in vivo
Method: The objective of this study was to determine the oral bioavailability of Ca-DTPA using radioactive ^14C-DTPA tracer for detection in male Sprague Dawley rats after oral administration in several different formulations. After oral gavage of Ca-DTPA or DTPA (free acid) in sterile water, the oral bioavailability of DTPA is estimated to be about 7% in these two treatment groups. […] In Group 7, which also was administered DTPA in 20% Labrasol (+Quinidine pretreatment), the mean bioavailability was 10%, but this group had greater interindividual variability than seen in the other treatment groups.

iron-loaded dogs = assay: Excretion of iron after repeat dose administration of DTPA in iron-loaded dogs; format: in vivo, beagle dogs; parameters: Excretion of Fe in urine / Excretion of Fe in urine, Total: unit not given here; conditions: for Excretion of Fe in urine, Total: sum 4 hr to 120 hr; for excretion of Fe after oral DTPA as % of the amount excreted by intravenously treated animals: oral vs IV
Method: The objective of this study was to evaluate the efficacy of an oral formulation of DTPA to enhance the excretion of iron in urine from iron-loaded dogs. Iron-loaded dogs were used in the study as a surrogate model for contamination by transuranic elements.
Two treatment groups, consisting of one male and one female dog, were compared. Ca-DTPA in sterile saline was administered by the intravenous route, 10 mg/kg, on Day 1, followed by 4 days of treatment with Zn-DTPA (10 mg/kg daily). The oral treatment group was also administered 10 mg/kg in 20% Labrasol® in capsules, with Ca-DTPA on Day 1 and Zn-DTPA on Days 2-5. Blood was collected from each dog at the following time points: predose and 1, 4, 8, and 24 hr after dose administration on Day 1, and at 24 hr postdose on Days 2-5. Dogs were maintained in metabolism cages for the study, and urine was collected at 4, 8, and 24 hr after the Day 1 dose, and every 24 hr after the Day 2-5 doses. Collected samples were analyzed for iron, calcium, and zinc by Perkin-Elmer ICP (Inductively Coupled Plasma) unit.

[3] = test system: harvested rat small intestinal segments: Ileum; assay: Ussing chamber mucosal to serosal transport across rat ileum; format: in vitro ADME; conditions: 5 mg/ml of DTPA in HEPES Buffer
Method: (§1) The primary objective of these in vitro studies was to determine a formulation containing permeation enhancers/other additives that achieved maximum transport of DTPA from mucosal to serosal side of the intestine. The mucosal to serosal absorption of DTPA (Zinc/Calcium) was measured in vitro across harvested rat intestinal segments and colon, in an EasyMount Ussing System (Physiological Instruments Inc., CA, Item #EM-CSYS-8). The Ussing chamber consists of two diffusion chambers, a heating block for temperature control, needle valves for gas flow adjustment and gas lift stirring, and Ag/AgCl voltage and current electrodes for measuring transepithelial voltage and for passing current. Representative sections of the harvested rat small intestinal segments (jejunum, duodenum, and ileum) and the rat colon were mounted on sliders placed between the chambers, and DTPA (Zinc/Calcium) transport across the sections was monitored. Aliquots of sample solution were removed from the ‘serosal’ side at 30 min intervals and analyzed by high performance liquid chromatography (HPLC). The change in mucosal to serosal transport of DTPA (Zinc/Calcium) in the presence of different permeation enhancers was determined.
(§2) Zn-DTPA and Ca-DTPA was dissolved in HEPES buffer (VWR, Brisbane, Calif.), with or without additives, at the predetermined drug concentrations. […]

[4] = test system: harvested rat small intestinal segments: Jejunum; assay: Ussing chamber mucosal to serosal transport across rat jejunum; format: in vitro ADME
Method: as §1
Zn-DTPA and Ca-DTPA was dissolved in HEPES buffer (VWR, Brisbane, Calif.), with or without additives, at the predetermined drug concentrations. HEPES buffer was used as the base mucosal and serosal fluid. Before initiating the experiment, 5 ml of HEPES buffer was added to each of the two chambers (mucosal and serosal) and was allowed to equilibrate for 20 min. Next, the mucosal buffer was replaced by the appropriate formulation to be tested and the experiment was initiated. Aliquots (0.5 ml) were collected from the serosal side and were replaced with an equivalent amount of fresh HEPES buffer (maintained at physiological temperature). The aliquotted samples from the serosal side were analyzed by HPLC.
Owing to the expected variation in the in vitro conditions and harvested rat intestinal segments, five replicates were used per experimental condition. In order to compare data obtained from the different experiments, the apparent permeability coefficients (Papp) were calculated according to:
[formula] Where, dQ/dt is the linear appearance rate of mass in receiver compartment, C0 is the initial solute concentration in donor compartment, and A is the surface area. The higher the Papp value, the better the permeation property. The similarity of the Papp values indicates similar behavior for the two DTPA compounds.
We then evaluated transport of Zn-DTPA and Ca-DTPA through jejunum segments with and without Labrasol.
We then tested the transport of 100 mg/ml DTPA in HEPES buffer with and without added enhancers across jejunum segments; results are in Table 3.

rat colon = assay: Ussing chamber mucosal to serosal transport across rat colon; format: in vitro ADME; conditions: 5 mg/ml of DTPA in HEPES Buffer
Method: as §1, §2

[5] = test system: harvested rat small intestinal segments: Duodenum; assay: Ussing chamber mucosal to serosal transport across rat duodenum; format: in vitro ADME; conditions: 5 mg/ml of DTPA in HEPES Buffer
Method: as §1, §2

O=C(O)CN(CCN(CC(=O)O)CC(=O)O)CCN(CC(=O)O)CC(=O)O [DTPA]
dose excreted in the feces ([1]; by 24 hr, both treatment groups (bead and liquid capsule)): 73-74%
dose recovered in the excreta ([1]; by 264 hr after dose administration, oral Labrasol formulations): 95-96%
% Bioavailability Mean ± SD ([2]; Group 4 Oral, 20% Labrasol): ~12%
% Bioavailability Mean ± SD ([2]; Group 7 Oral, 0.15 mM Quinidine pretreatment then 20% Labrasol): 10%
% Bioavailability ([2]; Group 7 Oral, 0.15 mM Quinidine pretreatment then 20% Labrasol, individual rats): 19%
Excretion of Fe in urine (iron-loaded dogs; Dog 1M, IV 10 mg/kg daily, Time 48 hr): 0.6044
Excretion of Fe in urine (iron-loaded dogs; Dog 1M, IV 10 mg/kg daily, Time 72 hr): 0.1732
Excretion of Fe in urine (iron-loaded dogs; Dog 1M, IV 10 mg/kg daily, Time 96 hr): 0.1762
Excretion of Fe in urine (iron-loaded dogs; Dog 1M, IV 10 mg/kg daily, Time 120 hr): 0.2324
Excretion of Fe in urine, Total (iron-loaded dogs; Dog 1M, IV 10 mg/kg daily): 1.444
Excretion of Fe in urine (iron-loaded dogs; Dog 1M, IV 10 mg/kg, Time 4 hr): 0.0970
Excretion of Fe in urine (iron-loaded dogs; Dog 1M, IV 10 mg/kg, Time 8 hr): 0.0471
Excretion of Fe in urine (iron-loaded dogs; Dog 1M, IV 10 mg/kg, Time 24 hr): 0.1136
Excretion of Fe in urine (iron-loaded dogs; Dog 1M, IV in saline 10 mg/kg (Ca-DTPA Day 1, Zn-DTPA Days 2-5), Time 0 hr (predose)): 0.1297
Excretion of Fe in urine (iron-loaded dogs; Dog 2F, IV 10 mg/kg daily, Time 48 hr): 0.2686
Excretion of Fe in urine (iron-loaded dogs; Dog 2F, IV 10 mg/kg daily, Time 72 hr): 0.1623
Excretion of Fe in urine (iron-loaded dogs; Dog 2F, IV 10 mg/kg daily, Time 96 hr): 0.2884
Excretion of Fe in urine (iron-loaded dogs; Dog 2F, IV 10 mg/kg daily, Time 120 hr): 0.0166
Excretion of Fe in urine, Total (iron-loaded dogs; Dog 2F, IV 10 mg/kg daily): 0.925
Excretion of Fe in urine (iron-loaded dogs; Dog 2F, IV 10 mg/kg, Time 4 hr): 0.0975
Excretion of Fe in urine (iron-loaded dogs; Dog 2F, IV 10 mg/kg, Time 8 hr): 0.0124
Excretion of Fe in urine (iron-loaded dogs; Dog 2F, IV 10 mg/kg, Time 24 hr): 0.0792
Excretion of Fe in urine (iron-loaded dogs; Dog 2F, IV in saline 10 mg/kg (Ca-DTPA Day 1, Zn-DTPA Days 2-5), Time 0 hr (predose)): 0.1158
Excretion of Fe in urine (iron-loaded dogs; Dog 3M, Oral 10 mg/kg in 20% Labrasol capsules (Ca-DTPA Day 1, Zn-DTPA Days 2-5), Time 0 hr (predose)): 0.0947
Excretion of Fe in urine (iron-loaded dogs; Dog 3M, Oral 10 mg/kg in 20% Labrasol capsules, Time 4 hr): 0.0654
Excretion of Fe in urine (iron-loaded dogs; Dog 3M, Oral 10 mg/kg in 20% Labrasol capsules, Time 8 hr): 0.0153
Excretion of Fe in urine (iron-loaded dogs; Dog 3M, Oral 10 mg/kg in 20% Labrasol capsules, Time 24 hr): 0.1000
Excretion of Fe in urine (iron-loaded dogs; Dog 3M, Oral 10 mg/kg in 20% Labrasol capsules, Time 48 hr): 0.1232
Excretion of Fe in urine (iron-loaded dogs; Dog 3M, Oral 10 mg/kg in 20% Labrasol capsules, Time 72 hr): 0.0506
Excretion of Fe in urine (iron-loaded dogs; Dog 3M, Oral 10 mg/kg in 20% Labrasol capsules, Time 96 hr): 0.1869
Excretion of Fe in urine (iron-loaded dogs; Dog 3M, Oral 10 mg/kg in 20% Labrasol capsules, Time 120 hr): 0.0506
Excretion of Fe in urine, Total (iron-loaded dogs; Dog 3M, Oral 10 mg/kg in 20% Labrasol capsules): 0.591
Excretion of Fe in urine (iron-loaded dogs; Dog 4F, Oral 10 mg/kg in 20% Labrasol capsules (Ca-DTPA Day 1, Zn-DTPA Days 2-5), Time 24 hr): 0.0314
Excretion of Fe in urine (iron-loaded dogs; Dog 4F, Oral 10 mg/kg in 20% Labrasol capsules, Time 48 hr): 0.1162
Excretion of Fe in urine (iron-loaded dogs; Dog 4F, Oral 10 mg/kg in 20% Labrasol capsules, Time 72 hr): 0.0210
Excretion of Fe in urine (iron-loaded dogs; Dog 4F, Oral 10 mg/kg in 20% Labrasol capsules, Time 96 hr): 0.0406
Excretion of Fe in urine (iron-loaded dogs; Dog 4F, Oral 10 mg/kg in 20% Labrasol capsules, Time 120 hr): 0.1089
Excretion of Fe in urine, Total (iron-loaded dogs; Dog 4F, Oral 10 mg/kg in 20% Labrasol capsules): 0.318
time of highest excretion of Fe in the urine (iron-loaded dogs; female Dog 4 (oral group)): 48 h
excretion of Fe after oral DTPA as % of the amount excreted by intravenously treated animals (iron-loaded dogs; female dogs): 34%
time of highest excretion of Fe in the urine (iron-loaded dogs; male Dog 1 (intravenous group)): 48 h
excretion of Fe after oral DTPA as % of the amount excreted by intravenously treated animals (iron-loaded dogs; male dogs): 40%
time of highest excretion of Fe in the urine (iron-loaded dogs; the other two dogs (Dog 2 IV, Dog 3 oral)): 96 h

O=C([O-])CN(CCN(CC(=O)[O-])CC(=O)[O-])CCN(CC(=O)[O-])CC(=O)[O-].[Na+].[Na+].[Na+].[Zn+2] [Zn-DTPA, zinc diethylenetriaminepentaacetate]
Papp [3]: 2.07 ×10⁻⁶ cm/s
Papp ([4]; Jejunum, 5 mg/ml of drug in HEPES Buffer): 4.54 ×10⁻⁶ cm/s and 4.28 ×10⁻⁶ cm/s
Papp ([4]; jejunum, 5 mg/ml of drug in HEPES Buffer containing 40% Labrasol): 19.08 ×10⁻⁶ cm/s
Papp ([4]; jejunum, 100 mg/ml DTPA in HEPES buffer, 5% TPGS + 5% Labrasol): 6.34 ×10⁻⁶ cm/s
Papp ([4]; jejunum, 100 mg/ml DTPA in HEPES buffer, 5% Tween 80 + 5% Labrasol): 13.27 ×10⁻⁶ cm/s
Papp ([4]; jejunum, 100 mg/ml DTPA in HEPES buffer, 20% Bile Salt): 19.65 ×10⁻⁶ cm/s
Papp ([4]; jejunum, 100 mg/ml of drug in HEPES Buffer containing 10% Labrasol): 4.21 ×10⁻⁶ cm/s
Papp ([4]; jejunum, 100 mg/ml of drug in HEPES Buffer containing 20% Labrasol): 3.53 ×10⁻⁶ cm/s
Papp ([4]; jejunum, 100 mg/ml of drug in HEPES Buffer containing 40% Labrasol): 6.81 ×10⁻⁶ cm/s
Papp ([4]; jejunum, 100 mg/ml of drug in HEPES Buffer only): 5.86 ×10⁻⁶ cm/s
Papp (rat colon): 2.39 ×10⁻⁶ cm/s
Papp [5]: 1.65 ×10⁻⁶ cm/s

O=C(O)CN(CCN(CC(=O)O)CC(=O)O)CCN(CC(=O)O)CC(=O)O [free acid DTPA]
% Bioavailability Mean ± SD ([2]; Group 3 Oral, water): 6.80 ± 1.66%
AUC0→last Mean ± SD ([2]; Group 3 Oral, water, 16.38 mg-equiv DTPA/Kg, 6 hr): 1.21 ± 0.29 Hr * ( ng/ml)
AUC0→last ([2]; Group 3 Oral, water, 16.38 mg-equiv DTPA/Kg, last time point 6 hr, individual rats): 1.4708 Hr * ( ng/ml) and 0.8897 Hr * ( ng/ml) and 1.2594 Hr * ( ng/ml)
% Bioavailability ([2]; Group 3 Oral, water, individual rats): 8.29% and 5.02% and 7.10%
% Bioavailability Mean ± SD ([2]; Group 3 Oral, water, listed as DTPA (free acid)): about 7%

C=C[C@H]1C[N@@]2CC[C@H]1C[C@@H]2[C@@H](O)c1ccnc2ccc(OC)cc12 [quinidine]
inhibition of efflux transport of DTPA ([2]; 0.15 mM quinidine 20 min before DTPA in 20% Labrasol, inferred from rat #19): active in inhibiting efflux transport of DTPA
